According to US6346539B1, “Treatment of skin conditions” (BTG International Limited, priority 1998, dated 2002):
Marks after values point to notes of the source that are not given here.

How the values were obtained:
[1] = tested on: FM21E Melanoblast; experiment: Effects of piperine and TPA on growth of human melanoblasts, SRB assay; format: cell-based
Procedure: (§1) In order to determine the specificity of piperine, a panel of different cell types were employed to facilitate this investigation. These included melan-a, melan-c, SVK14, CSM, XB2, SC1, B16F10, IM9, CACO2, Swiss 3T3 cell lines and normal human lymphocytes. TPA (20 nM) was also tested on these cells.
Human melanoblasts in culture in this experiment were established from human foetal skin. Subconfluent melanoblasts maintained in MCDB 153 medium supplemented with 10% FBS, 10 ng/ml stem cell factor (SCF) and 1 nM endothelin 3 were subcultured and inoculated into 96-well microplate with 6×10^3 cells/100 μl/well. After incubation in the 10% CO2, humidified atmosphere, at 37° C. for 3-4 hours to allow the attachment of the cells on the plate, piperine dissolved in MeOH and water was added into the wells. The final concentrations of piperine were 1, 5, 10, 100 μM, with TPA (20 nM) as positive control. Six replicates were used in each group of treatment, with 12 wells used for vehicle control. The incubation was conducted for 5 days before cells were harvested by fixing with cold trichloroacetic acid (TCA, at 4° C., final concentration 20% v/v), and evaluated for cell number using an SRB assay. […] Growth in the presence of piperine and TPA was expressed as % of control incubations containing no piperine or TPA. […]

[2] = tested on: human melanocytes; experiment: Proliferation of human melanocytes cultured in petri dishes, haemocytometer count; format: cell-based
Procedure: (§2) For the second protocol, subconfluent human melanocytes were subcultured in a Ø60 mm petri dishes (28 cm^2, Falcon) with RPMI 1640 basic medium supplemented with FBS (10%), CT (1 nM), bFGF (100 pM) and endothelin 1 (1 nM). The initial plating density was 10,000 cells/cm^2, with 5 ml medium per dish. Cells were incubated for 2-3 hours in 10% CO2, humidified atmosphere, at 37° C., followed by addition of piperine solution in to the dishes, making the final concentrations of 0, 1, 5, 10 and 100 μM. Cells in the above supplemented medium lacking endothelin 1 were also set up as a negative control. Three dishes were used for each treatment and the culture was maintained for 5 days before cells were harvested with trypsinisation and counted with a haemocytometer chamber. For melanin production experiment, the harvested cells were centrifuged and pelleted. After carefully removing the medium, NaOH (1 M) was used to solubilized the cell pellets and optical density read at 475 nm in a Perkin-Elmer UV spectrophotometer (model UV/VIS Lambda 2). The melanin content was calculated by using a regression equation y=0.005+0.005× corresponding to the calibration curve for synthetic melanin.

[3] = tested on: human melanocytes; experiment: Melanin production of human melanocytes cultured in petri dishes; format: cell-based; conditions: 5 days
Procedure: as §2

[4] = tested on: Melan-a; experiment: Effects of piperine and TPA on growth of Melan-a (panel of cell types); format: cell-based, mouse; conditions: piperine 0.1 and 1 μM (FIG. 4)
Procedure: Cells of mouse melan-a cell line (passage number 18-24), a first known line of non-tumorigenic pigmented mouse melanocytes were maintained in a flask (Costar, Cambridge, Mass., USA) using RPMI 1640 (ICN, Costa, Mesa, Calif., USA) as a basic medium. For microplate proliferation assays, subconfluent melan-a cultures were trypsinized (0.25% trypsin at 37° C. for 5-10 min) and inoculated with a repeater-pipettor (Finn pipette, Labsystems, Finland) into 96-well microtiter plates (Costar, Cambridge, Mass., USA). The plates were incubated at 37° C. in a 10% CO2, 90% air humidified atmosphere for the stated length of time. At the end of the incubation, an SRB assay was performed. Briefly, cells attached to the bottom of the plate were fixed by addition of cold trichloroacetic acid (TCA, 4° C., Aldrich, Dorset, UK) on the top of the growth medium (final TCA 20% w/v). The plate was placed at 4° C. for 1 hour before being gently washed five times with tap water. It was allowed to dry in air, or aided with a hair dryer to speed up the drying process, then 50 μl of 4% w/v SRB dissolved in 1% acetic acid in water was added to each well for 30 min. […] The plate was shaken for 15 min on a gyratory shaker followed by reading the optical density (OD) at 550 nm in a microplate spectrophotometer (Anthos Labtec HT3, version 1.06). […]

[5] = tested on: B16F10 mouse melanoma; experiment: Effects of piperine and TPA on growth of B16F10 (panel); format: cell-based
Procedure: as §1

[6] = tested on: FM21E human melanocytes; experiment: Effects of piperine and TPA on growth of human melanocytes, 24-well plate, SRB assay; format: cell-based
Procedure: as §1
For the first protocol, subconfluent human melanocytes maintained in a Ø100 mm petri dish were subcultured into two 24-well plates (Falcon) using basic culture medium of RPMI 1640 supplemented with FBS (10%), bFGF (100 pM), CT (1 nM) and endothelin 1 (1 nM). The initial plating density was 20,000 cells/cm^2 (38,200 cells/well) with each well containing 1000 μl medium. After incubation in a 10% CO2, humidified atmosphere, at 37° C. for 2-3 hours to allow the attachment of the cells, piperine in 500 μl medium was added into wells to made up final concentrations of 0, 1, 5, 10 and 100 μM. Cells only in the medium with above supplement lacking of endothelin 1 were also set up as negative control. Six replicates were used in each group of treatment, and culture was incubated for 5 days before the cells were harvested by fixing with cold TCA (final concentration 20%) and processed with SRB assay. The solubilized SRB dye solution was transferred to a 96-well plate for optical density reading.

[7] = tested on: melan-a cells; experiment: Proliferation of melan-a cells counted with haemocytometer; format: cell-based, mouse; set-up: unit not given here; conditions: 20 nM TPA; 4 days
Procedure: Melan-a cells were plated in petri dishes (Ø35 mm, Nunclon, Denmark) with a plating density of 2×10^4/ml and Piper nigrum extract at concentrations of 0.01 and 0.1 mg/ml. A negative control (cells in medium only) and positive TPA (20 nM) control were also set up. After 4 days the cells in each dish were harvested and counted with haemocytometer.

O=C(/C=C/C=C/c1ccc2c(c1)OCO2)N1CCCCC1 [Piperine, (E,E)-1-[5-(1,3-benzodioxol-5-yl)-1-oxo-2,4-pentadienyl]piperidine]
more cell yield compared to vehicle control ([1]; 100 μM piperine for 5 days): 34%
cell number relative to ET1 (1 nM) control ([2]; 5 μM piperine for 5 days, petri dishes): over twice as many
Cell no. (×10^−4) ± SD after cultured for 5 days ([2]; ET1 (1 nM) + piperine (1 μM)): 60.83 ± 16.78 ×10^−4
Cell no. (×10^−4) ± SD after cultured for 5 days ([2]; ET1 (1 nM) + piperine (5 μM)): 78.96 ± 5.63 ×10^−4
Cell no. (×10^−4) ± SD after cultured for 5 days ([2]; ET1 (1 nM) + piperine (10 μM)): 64.79 ± 13.47 ×10^−4
Cell no. (×10^−4) ± SD after cultured for 5 days ([2]; ET1 (1 nM) + piperine (100 μM)): 61.04 ± 10.04 ×10^−4
activity at 1 µM ([2]; Homo sapiens, Melanocyte, 120 h, ET1 (1 nM) + piperine (1 μM), 5 days, read-out: % of control (ET1 1 nM)): 169%
activity at 5 µM ([2]; Homo sapiens, Melanocyte, 120 h, ET1 (1 nM) + piperine (5 μM), 5 days, read-out: % of control (ET1 1 nM)): 219%
activity at 10 µM ([2]; Homo sapiens, Melanocyte, 120 h, ET1 (1 nM) + piperine (10 μM), 5 days, read-out: % of control (ET1 1 nM)): 180%
activity at 100 µM ([2]; Homo sapiens, Melanocyte, 120 h, ET1 (1 nM) + piperine (100 μM), 5 days, read-out: % of control (ET1 1 nM)): 169%
Melanin content/10^4 cells ([3]; ET1 (1 nM) + piperine (1 μM)): 0.42 ± 0.03 μg
OD reading ± SD at 475 nm ([3]; ET1 (1 nM) + piperine (1 μM)): 0.134 ± 0.014
Melanin content/10^4 cells ([3]; ET1 (1 nM) + piperine (5 μM)): 0.334 ± 0.01 μg
Melanin content/10^4 cells ([3]; ET1 (1 nM) + piperine (10 μM)): 0.41 ± 0.07 μg
Melanin content/10^4 cells ([3]; ET1 (1 nM) + piperine (100 μM)): 0.46 ± 0.001 μg
effect on melan-a proliferation [4]: significantly stimulated melan-a proliferation
effect on B16 mouse melanoma cell line [5]: inhibitory effects
more cells yielded ([6]; 10 μM piperine for 5 days, 24-well plate, ET1 1 nM): 36%
effect on the growth of human melanocytes ([6]; piperine 100 μM, 24-well plate): inhibitory effect

tetradecanoyl phorbol acetate [TPA, reference compound]
more cell yield compared to vehicle control ([1]; TPA 20 nM for 5 days): over 50%
effect on the growth of human melanocytes ([6]; TPA 20 nM in the presence of 1 nM endothelin 1): not able to stimulate cell growth
cell number [7]: 5.0*
